Experimental data reported in patent publication US20080085884A1, “Melanin Concentrating Hormone Receptor-1 Antagonist Pyridinones” (Pfizer Inc, priority 2006, published 2008).
pKi: −log10 of the molar value. Counter-ions that a name gives are not always drawn.

target: T1, human MCHR1 (Homo sapiens, UniProt Q99705); assay: Cyclic AMP assay (MCHR-1 functional antagonism); type: cell-based; settings: CHO cells stably expressing human MCHR1; cAMP accumulation with 25 uM forskolin and 0.2 nM MCH, 90 min; Ki from IC50 by Cheng-Prusoff; read-out: MCHR-1 functional Ki
T1 construct: host or cells: CHO
T1 sequence (Q99705 whole entry): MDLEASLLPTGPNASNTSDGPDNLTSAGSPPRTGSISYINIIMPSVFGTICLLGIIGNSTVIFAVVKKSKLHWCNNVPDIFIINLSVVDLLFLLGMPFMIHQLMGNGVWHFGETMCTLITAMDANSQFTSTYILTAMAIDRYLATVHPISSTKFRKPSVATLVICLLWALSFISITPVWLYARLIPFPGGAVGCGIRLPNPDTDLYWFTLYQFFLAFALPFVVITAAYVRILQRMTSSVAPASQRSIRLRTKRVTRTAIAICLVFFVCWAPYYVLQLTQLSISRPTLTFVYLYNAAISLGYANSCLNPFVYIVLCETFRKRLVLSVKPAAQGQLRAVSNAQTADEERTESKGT
Experimental: CHO cell lines stably expressing the human MCHR1 (Euroscreen, Brussels, Belgium) were maintained in DMEM containing Glutamax (Invitrogen, Carlsbad, Calif.), 10% FBS, 400 ug/ml Geneticin.
Cyclic AMP assays. CHO cells stably expressing the human MCHR1 receptors were collected and resuspended at a density of 4.0×10^6 cells/ml in F12 (Hams) media and seeded (20,000 cells per well) into 384-well, solid white Greiner assay plates. […] Cells were incubated at 37° C./5% CO2 for 90 minutes and cAMP accumulation subsequently determined by DiscoveRx Hithunter c-AMP II Assay kit (GE Healthcare, Buckinghamshire, UK) in accordance with manufactures instructions. Luminescence was measured on a LEADseaker imaging system (GE Healthcare, Buckinghamshire, UK). IC50 values were calculated from dose-response data fit using an in-house computer graphics and statistics program.

| Structure (SMILES) | pKi |
| --- | --- |
| CN(C(=O)OC(C)(C)C)[C@H]1CCN(c2ccc(-n3ccc(OCc4ccccc4)cc3=O)cn2)C1 [Example 12, tert-Butyl {(3S)-1-[4-(benzyloxy)-2-oxo-2H-1,3′-bipyridin-6′-yl]pyrrolidin-3-yl}methyl carbamate] | 8.00 |
| CN(C)C(=O)C1CCN(c2ccc(-n3ccc(OCc4ccccc4)cc3=O)cn2)C1 (racemic) [Example 25, 1-[4-(Benzyloxy)-2-oxo-2H-1,3′-bipyridin-6′-yl]-N,N-dimethylpyrrolidine-3-carboxamide] | 7.09 |
| COC(=O)N[C@@H]1CCN(c2ccc(-n3ccc(OCc4ccc(F)cc4)cc3=O)cn2)C1 [Example 192] | 6.84 |
| CC(=O)N(C)C1CCN(c2ccc(-n3ccc(OCc4ccccc4)cc3=O)cn2)CC1 [Example 165] | 7.53 |
| O=c1cc(OCc2cccc(Cl)c2Cl)ccn1-c1ccc(N2CC[C@@H](O)C2)nc1 [Example 205] | 6.30 |
| CCOC(=O)N[C@H]1CCN(c2ccc(-n3ccc(OCc4ccccc4)cc3=O)cn2)C1 [Example 176] | 7.52 |
| CC(=O)N1CCN(c2ccc(-n3ccc(OCc4ccc(F)cc4)cc3=O)cn2)CC1 [Example 83] | 6.07 |
| CC(C)C(=O)N1C[C@@H]2CN(c3ccc(-n4ccc(OCc5ccc(F)cc5)cc4=O)cn3)C[C@@H]2C1 [Example 170] | 7.54 |
| CC1(N)CCN(c2ccc(-n3ccc(OCc4ccccc4)cc3=O)cn2)C1 (single isomer, unassigned) [Example 17b, 6′-(3-Amino-3-methylpyrrolidin-1-yl)-4-(benzyloxy)-2H-1,3′-bipyridin-2-one] | 7.42 |
| COC(=O)N(C)[C@@H]1CCN(c2ccc(-n3ccc(OCc4ccc(F)cc4)cc3=O)cn2)C1 [Example 179] | 7.72 |
| O=c1cc(OCc2ccc(Cl)cc2)ccn1-c1ccc(N2CC[C@@H](O)C2)nc1 [Example 10, 4-[(4-Chlorobenzyl)oxy]-6′-[(3R)-3-hydroxypyrrolidin-1-yl]-2H-1,3′-bipyridin-2-one] | 7.37 |
| O=c1cc(OCc2ccc(F)cc2)ccn1-c1ccc(N2CC[C@@H](O)C2)nc1 [Example 113] | 7.30 |
| CN1CCN(c2ccc(-n3ccc(OCc4ccccc4)cc3=O)cn2)CC1 [Example 6, 4-(Benzyloxy)-6′-(4-methylpiperazin-1-yl)-2H-1,3′-bipyridin-2-one] | 6.79 |
| CCC1CN(c2ccc(-n3ccc(OCc4ccccc4)cc3=O)cn2)CCN1 (stereo not drawn) [Example 223] | 6.71 |
| O=c1cc(OCc2ccccc2)ccn1-c1ccc(N2CCC3(CCNC3)C2)nc1 (stereo not drawn) [Example 219] | 8.07 |
| CN[C@H]1CCN(c2ccc(-n3ccc(COc4ccccc4)cc3=O)cn2)C1 [Example 122] | 6.96 |
| O=c1cc(OCc2ccccc2)ccn1-c1ccc(N2CCC(N3CCC3)C2)nc1 (stereo not drawn) [Example 61] | 7.73 |
| CN[C@H]1CCN(c2ccc(-n3ccc(OCc4ccc(Cl)cc4F)cc3=O)cn2)C1 [Example 153] | 8.69 |
| CNC1CN(c2ccc(-n3ccc(OCc4ccccc4)cc3=O)cn2)C1 [Example 111] | 6.79 |
| O=c1cc(OCc2ccc(Cl)cc2)ccn1-c1ccc(N2CC[C@H](O)C2)nc1 [Example 29, 4-[(4-Chlorobenzyl)oxy]-6′-[(3S)-3-hydroxypyrrolidin-1-yl]-2H-1,3′-bipyridin-2-one] | 7.63 |
| N[C@@H]1CCN(c2ccc(-n3ccc(OCc4ccc(Cl)cc4)cc3=O)cn2)C1 [Example 105] | 8.20 |

| Structure (SMILES) | pKi |
| --- | --- |
| CCN(C(=O)OC)[C@H]1CCN(c2ccc(-n3ccc(OCc4ccccc4)cc3=O)cn2)C1 [Example 177] | 7.71 |
| O=c1cc(OCc2ccc(F)cc2)ccn1-c1ccc(N2C[C@@H]3CN(C4CCC4)C[C@@H]3C2)nc1 [Example 208] | 8.57 |
| CC(=O)N(C)[C@H]1CCN(c2ccc(-n3ccc(OCc4ccc(Cl)cc4)cc3=O)cn2)C1 [Example 173] | 7.88 |
| O=c1cc(OCc2ccc(F)c(Cl)c2)ccn1-c1ccc(N2CC[C@@H](O)C2)nc1 [Example 206] | 6.60 |
| N[C@H]1CCN(c2ccc(-n3ccc(OCc4ccc(F)cc4)cc3=O)cn2)C1 [Example 118] | 7.94 |
| O=c1cc(COc2ccc(F)cc2)ccn1-c1ccc(N2CC[C@@H](O)C2)nc1 [Example 93] | 5.96 |
| CC(=O)N1C[C@@H]2CN(c3ccc(-n4ccc(OCc5ccccc5)cc4=O)cn3)C[C@@H]2C1 [Example 158] | 7.30 |
| CC(C)N(C)[C@H]1CCN(c2ccc(-n3ccc(OCc4ccccc4)cc3=O)cn2)C1 [Example 60] | 8.53 |
| COC1CCN(c2ccc(-n3ccc(OCc4ccccc4)cc3=O)cn2)C1 (stereo not drawn) [Example 37] | 7.37 |
| O=c1cc(OCc2ccccc2)ccn1-c1ccc(N2CC(N3CCCC3)C2)nc1 [Example 78] | 6.81 |
| O=c1cc(OCc2ccccc2)ccn1-c1ccc(N2CC[C@@H](O)C2)nn1 [Example 157] | 5.50 |
| CN(C)[C@H]1CCN(c2ccc(-n3ccc(OCc4ccccc4)cc3=O)cn2)C1 [Example 57] | 8.44 |
| CN[C@@H]1CCN(c2ccc(-n3ccc(OCc4ccccc4)cc3=O)nc2)C1 [Example 33, 4-(Benzyloxy)-5′-[(3R)-3-(methylamino)pyrrolidin-1-yl]-2H-1,2′-bipyridin-2-one] | 7.71 |
| COC(=O)N1C[C@@H]2CN(c3ccc(-n4ccc(OCc5ccc(F)cc5)cc4=O)cn3)C[C@@H]2C1 [Example 195] | 7.50 |
| CN[C@H]1CCN(c2ccc(-n3ccc(OCc4ccccc4)cc3=O)cn2)C1 [Example 13, 4-(Benzyloxy)-6′-[(3S)-3-(methylamino)pyrrolidin-1-yl]-2H-1,3′-bipyridin-2-one dihydrochloride] | 8.31 |
| CN(C(=O)OC(C)(C)C)[C@@H]1CCN(c2ccc(-n3ccc(OCc4ccc(Cl)cc4)cc3=O)cn2)C1 [Example 197] | 8.11 |
| CNC1CN(c2ccc(-n3ccc(OCc4ccc(F)cc4)cc3=O)cn2)C1 [Example 112] | 6.74 |
| CC(C)CC1CN(c2ccc(-n3ccc(OCc4ccccc4)cc3=O)cn2)CCN1 (stereo not drawn) [Example 222] | 6.17 |
| CCN1C[C@@H]2CN(c3ccc(-n4ccc(OCc5ccccc5)cc4=O)cn3)C[C@@H]2C1 [Example 26, 4-(Benzyloxy)-6′-[(3aR,6aS)-5-ethylhexahydropyrrolo[3,4-c]pyrrol-2(1H)-yl]-2H-1,3′-bipyridin-2-one] | 8.18 |
| CC(C)CC1CN(c2ccc(-n3ccc(OCc4ccccc4)cc3=O)cn2)CCN1 (stereo not drawn) [Example 71] | 6.20 |
| O=c1cc(OCc2ccc(F)c(F)c2)ccn1-c1ccc(N2CC[C@@H](O)C2)nc1 [Example 148] | 6.90 |

| Structure (SMILES) | pKi |
| --- | --- |
| O=c1cc(OCc2ccccc2)ccn1-c1ccc(N2CCC(O)CC2)nc1 [Example 46] | 6.67 |
| O=C1CCN(c2ccc(-n3ccc(OCc4ccccc4)cc3=O)cn2)C1 [Example 30, 4-(Benzyloxy)-6′-(3-oxopyrrolidin-1-yl)-2H-1,3′-bipyridin-2-one] | 5.61 |
| O=c1cc(OCc2ccccc2)ccn1-c1ccc(N2CCCNCC2)nc1 [Example 216] | 7.11 |
| O=c1cc(OCc2ccccc2)ccn1-c1ccc(N2CCCCC2)nc1 [Example 110] | 7.38 |
| CCOC(=O)N[C@@H]1CCN(c2ccc(-n3ccc(OCc4ccccc4)cc3=O)cn2)C1 [Example 43] | 6.44 |
| O=c1cc(OCc2ccc(Cl)cc2)ccn1-c1ccc(N2CCC[C@@H](O)C2)nc1 [Example 106] | 7.18 |
| CO[C@H]1CCN(c2ccc(-n3ccc(OCc4ccccc4)cc3=O)cn2)C1 [Example 36] | 7.12 |
| COC(=O)N1CCN(c2ccc(-n3ccc(OCc4ccc(F)cc4)cc3=O)cn2)CC1 [Example 81] | 5.93 |
| CN1C[C@@H]2CN(c3ccc(-n4ccc(OCc5ccccc5)cc4=O)cn3)C[C@@H]2C1 [Example 3, 4-(Benzyloxy)-6′-[(3aR,6aS)-5-methylhexahydropyrrolo[3,4-c]pyrrol-2(1H)-yl]-2H-1,3′-bipyridin-2-one] | 8.00 |
| COC1CCN(c2ccc(-n3ccc(OCc4ccccc4)cc3=O)cn2)CC1 [Example 47] | 7.24 |
| C[C@@H]1CN(c2ccc(-n3ccc(OCc4ccccc4)cc3=O)cn2)[C@@H](C)CN1 [Example 73] | 6.29 |
| O=c1cc(OCc2ccc(F)cc2)ccn1-c1ccc(N2CCC(O)CC2)nc1 [Example 115] | 7.00 |
| CN(C)C(=O)C1CCN(c2ccc(-n3ccc(OCc4ccccc4)cc3=O)cn2)C1 (single isomer, unassigned) [Example 25a, 1-[4-(Benzyloxy)-2-oxo-2H-1,3′-bipyridin-6′-yl]-N,N-dimethylpyrrolidine-3-carboxamide] | 7.15 |
| CN(C)C1CCN(c2ccc(-n3ccc(OCc4ccccc4)cc3=O)cn2)CC1 [Example 5, 4-(Benzyloxy)-6′-[4-(dimethylamino)piperidin-1-yl]-2H-1,3′-bipyridin-2-one] | 6.95 |
| CCC1CN(c2ccc(-n3ccc(OCc4ccccc4)cc3=O)cn2)CCN1 (stereo not drawn) [Example 72] | 7.13 |
| O=c1cc(OCc2ccccc2Cl)ccn1-c1ccc(N2CC[C@@H](O)C2)nc1 [Example 145] | 7.01 |
| COC(=O)N(C)[C@@H]1CCN(c2ccc(-n3ccc(OCc4ccccc4)cc3=O)cn2)C1 [Example 187] | 7.62 |
| NC1CN(c2ccc(-n3ccc(OCc4ccccc4)cc3=O)cn2)C1 [Example 232] | 6.62 |
| CN(C)C1CN(c2ccc(-n3ccc(OCc4ccccc4)cc3=O)cn2)C1 [Example 239] | 7.39 |
| O=c1cc(OCc2ccc(Cl)cc2)ccn1-c1ccc(N2C[C@@H](O)[C@@H](O)C2)nc1 [Example 101] | 7.59 |
| O=c1cc(OCc2ccc(F)cc2)ccn1-c1ccc(N2CCCC2)nc1 [Example 116] | 7.57 |
